Entries after “also recorded” stand apart in the source; their conditions may differ. Square brackets hold non-standard residues; d marks the D form. Ends that are not written are not given here. dOrn = NCCC[C@@H](N)C(=O)O; Orn = NCCC[C@H](N)C(=O)O
Each substance was assayed on bacteria (assay: Binding of targeting peptides to microorganisms (Table 3)). Conditions: microorganism bound by the targeting peptide; binding in aqueous buffers chosen by peptide solubility, preferably 1x PBS.

Substance | Target(s)
PF-219 (FLALAVIAGLFKVILIYAAPYLK; Peptide with targeting and/or antimicrobial activity) | S. epidermidis; also recorded: M. luteus; also recorded: P. aeruginosa; also recorded: A. baumannii
HIKETR (Peptide with targeting and/or antimicrobial activity) [PF-222] | S. epidermidis
PF-223 (VKFCIECQTKLERKRR; Peptide with targeting and/or antimicrobial activity) | S. epidermidis; also recorded: M. luteus; also recorded: A. baumannii
PF-231 (AVRDFKKSVREEDEAASLNSPRTIDAQVKTSESTSVKS; Peptide with targeting and/or antimicrobial activity) | S. mutans
PF-184 (LIADRHIRA; Peptide with targeting and/or antimicrobial activity) | S. epidermidis and M. luteus and E. coli and P. aeruginosa and C. albicans and MRSA and C. jeikeium
PF-141 (VVRRFQGM; Peptide with targeting and/or antimicrobial activity) | S. epidermidis and M. luteus and C. albicans and MRSA and C. jeikeium
PF-253 (VRDDDS; Peptide with targeting and/or antimicrobial activity) | S. epidermidis; also recorded: M. luteus
PF-285 (VPAKLLRVIDEIPE; Peptide with targeting and/or antimicrobial activity) | S. mutans
PF-152 (VGYFIWKDSHSRKG; Peptide with targeting and/or antimicrobial activity) | S. epidermidis and C. albicans and MRSA and E. faecalis and C. jeikeium
PF-348 (ESASAAEWYNPNMNVKKAICMG; Peptide with targeting and/or antimicrobial activity) | B. subtilis; also recorded: E. coli; also recorded: P. aeruginosa; also recorded: C. albicans; also recorded: E. faecalis; also recorded: C. jejuni
PF-371 (TFIYNEF; Peptide with targeting and/or antimicrobial activity) | S. epidermidis; also recorded: B. fragilis; also recorded: C. jejuni
PF-172 (LTGVRRPWRAPWAGTSGWALR; Peptide with targeting and/or antimicrobial activity) | S. epidermidis and M. luteus and E. coli and P. aeruginosa and MRSA and E. faecalis and C. jejuni
PF-248 (ILSKLWFWMINSLGVVLLVSYWLLAKWGVA; Peptide with targeting and/or antimicrobial activity) | S. mutans; also recorded: S. epidermidis; also recorded: M. luteus; also recorded: E. coli; also recorded: P. aeruginosa; also recorded: A. baumannii
PF-147 (RRPRRRRSGHGQSASAA; Peptide with targeting and/or antimicrobial activity) | S. epidermidis and M. luteus and MRSA
PF-138 (AVHHSLLFR; Peptide with targeting and/or antimicrobial activity) | S. epidermidis and M. luteus and P. mirabilis and E. coli and C. albicans and MRSA and C. jeikeium and C. jejuni
PF-323 (ARESIEKSHVPVDATIVGVVDSFEVFDE; Peptide with targeting and/or antimicrobial activity) | S. mutans

Same assay, conditions: microorganism the targeting peptide binds; binding in aqueous buffers that varied with peptide solubility, preferably 1x PBS

Substance | Target(s)
PF-055 (GHVFNGNNKRNL; Peptide with targeting and/or antimicrobial activity) | S. mutans
1T-260 (NILYFIHDENQWEPQKAEIFRGSIKHCAWLSS; Peptide with targeting and/or antimicrobial activity) [Peptide 1T-260] | A. naeslundii; also recorded: P. gingivalis; also recorded: S. epidermidis; also recorded: S. gordonii; also recorded: S. mitis; also recorded: S. mutans; also recorded: S. oralis; also recorded: S. sanguinis
Py Pf 12 ([dS]KG[Orn][dS]SGK[dOrn]ES; bridge (positions not given here); not fully specified (bridges)) | P. fluorescens
TT-311 (AIFDAMHNL; Peptide with targeting and/or antimicrobial activity) | S. mutans; also recorded: S. sobrinus
1T-270 (VHEFDIQKILQNR; Peptide with targeting and/or antimicrobial activity) [Peptide 1T-270] | F. nucleatum; also recorded: S. mutans; also recorded: S. oralis; also recorded: S. sanguinis
1T-218 (KLIFAALGLVFLLIGLRDSRSK; Peptide with targeting and/or antimicrobial activity) [Peptide 1T-218] | F. nucleatum; also recorded: S. sanguinis

Same assay, conditions: peptide binding in aqueous buffers that varied depending on peptide solubility; preferably 1x PBS

Substance | Target(s) (microorganism bound by the targeting peptide) | Target(s) (microorganisms bound by the targeting peptide)
PF-669 (RADRIESYPADGDRVITLWRNPYR; Peptide with targeting and/or antimicrobial activity) | Mycobacteria spp | –
PF-673 (VRRLRM; Peptide with targeting and/or antimicrobial activity) | S. mutans; also recorded: E. coli | –
PF-728 (AIGQEQDRREYYYYSGYPYYY; Peptide with targeting and/or antimicrobial activity) | S. mutans; also recorded: E. coli | –
PF-797 (WYYFDNNGYM; Peptide with targeting and/or antimicrobial activity) | S. mutans | –
PF-766 (DAYYAQLRKQKEIEEGA; Peptide with targeting and/or antimicrobial activity) | S. epidermidis and M. luteus and C. albicans and MRSA and E. faecalis and C. jeikeium | –
PF-781 (PLVVVNHRRAERSRG; Peptide with targeting and/or antimicrobial activity) | Mycobacteria spp. | –
PF-650 (IRSDQPGRQSRSSPRWPTGAGRHR; Peptide with targeting and/or antimicrobial activity) | Mycobacteria spp | –
ASKQASKQASKQASKQASKQASRSLKNHLL [PF-523] | – | S. epidermidis; also recorded: M. luteus; also recorded: C. albicans; also recorded: S. pneumoniae; also recorded: C. jeikeium; also recorded: C. jejuni
PF-S004 (VLLNIFRTLLEFFSPSNAPGAEDVPLPDTQA; Peptide with targeting and/or antimicrobial activity) | S. epidermidis and MRSA and C. jeikeium | –
PF-510 (WYLYKKQSNQNDRGIPK; Peptide with targeting and/or antimicrobial activity) | – | S. mutans; also recorded: E. coli
PF-788 (GLITVFAGTARILQLRRAAKKTHAAALR; Peptide with targeting and/or antimicrobial activity) | Mycobacteria spp. | –

Same assay, conditions: peptide binding in aqueous buffers varied by peptide solubility; preferably 1x PBS

Substance | Target(s) (microorganism bound by the targeting peptide)
1T-32 (VSFLAGWLCLGLAAWRLGNA; Peptide with targeting and/or antimicrobial activity) [Peptide 1T-32] | S. mutans
1T-87 (EAVGQDLVDAHHP; Peptide with targeting and/or antimicrobial activity) [Peptide 1T-87] | S. mitis; also recorded: S. mutans; also recorded: S. oralis
1T-60 (YLTSLGLDAAEQAQGLLTILKG; Peptide with targeting and/or antimicrobial activity) [Peptide 1T-60] | S. aureus; also recorded: S. epidermidis; also recorded: C. jeikeium; also recorded: C. striatum; also recorded: P. aeruginosa
1T-78 (FFKTIFVLILGALGVAAGLYIEKNYIDK; Peptide with targeting and/or antimicrobial activity) [Peptide 1T-78] | S. pneumoniae
1T-159 (IFSLHHFALICSEMGTFAVSKRAKYKWEVL; Peptide with targeting and/or antimicrobial activity) [Peptide 1T-159] | P. gingivalis
1T-23 (PALVDLSNKEAVWAVLDDHS; Peptide with targeting and/or antimicrobial activity) [Peptide 1T-23] | S. mutans; also recorded: P. aeruginosa
1T-154 (YFSFLEIVGMARR; Peptide with targeting and/or antimicrobial activity) [Peptide 1T-154] | P. gingivalis
1T-45 (WTKPSFTDLRLGFEVTLYFANR; Peptide with targeting and/or antimicrobial activity) [Peptide 1T-45] | S. aureus; also recorded: S. epidermidis; also recorded: C. striatum; also recorded: P. aeruginosa
1T-92 (GQDEGQRRAGVGEGQGVDG; Peptide with targeting and/or antimicrobial activity) [Peptide 1T-92] | S. mitis; also recorded: S. mutans
1T-6 (KFINGVLSQFVLERK; Peptide with targeting and/or antimicrobial activity) [Peptide 1T-6] | S. mutans
1T-122 (GAIPDPVTHRVDWEEDHQTRPSR; Peptide with targeting and/or antimicrobial activity) [Peptide 1T-122] | S. mitis
1T-101 (RLRVGRATDLPLTSFAVGVVRNLPDAPAH; Peptide with targeting and/or antimicrobial activity) [Peptide 1T-101] | A. naeslundii; also recorded: P. gingivalis; also recorded: S. epidermidis; also recorded: S. gordonii; also recorded: S. mitis; also recorded: S. mutans; also recorded: S. oralis; also recorded: S. sanguinis
1T-44 (DPALADFAAGMRAQVRT; Peptide with targeting and/or antimicrobial activity) [Peptide 1T-44] | S. mutans; also recorded: S. aureus; also recorded: S. epidermidis; also recorded: C. jeikeium; also recorded: C. striatum; also recorded: P. aeruginosa
